Data: a melting point compilation (Tetko et al.; mined from patent text by program, amines drawn as free bases though some values may be those of a salt)

`CCCCNC(=O)NS(=O)(=O)c1ccc(CCNC(=O)N2Cc3ccc(Cl)cc3C2=O)cc1` showed a melting point of 208 to 210 °C.
`COc1ccc(O)c(C2Sc3ccccc3N(C)C2=O)c1` (single isomer, unassigned; (-)) gave a melting point of 160 to 162 °C.
For `O=[N+]([O-])c1ccc(C=CC=CC=CC=Cc2ccc([N+](=O)[O-])cc2)cc1`, the melting point was 238 to 240 °C.
`O=c1oc2cc(O)ccc2c(O)c1C1=CCOc2oc3ccccc3c(=O)c21` gave a melting point of over 300 °C.
Work on `CC(C)(C)c1ccc(C(=O)Nc2cn3cc(F)ccc3n2)cc1` yielded a melting point of 250 to 251 °C.
In the case of `CCOCCC(=O)OC1(C(=O)CO)CCC2C3CC(C)C4=CC(=O)C=CC4(C)C3C(O)CC21C` (stereo unspecified), the melting point is reported as 167 °C.
`O=C(NC1CCCCC1)NS(=O)(=O)c1cnccc1NC1CCCCC1` showed a melting point of 165 to 167 °C.
`O=C(CCc1ccc(CNCc2ccccc2)cc1)Nc1ccc(-c2ccc(Cl)cc2)cc1` gave a melting point of 176 °C.
In the case of `C=C(C1=C(CCC(=O)O)C(=O)CC1=O)c1ccccc1`, the melting point is reported as 116 to 117 °C.
`N#Cc1c(N2CCCCC2)cc(-c2cccs2)c2c1-c1ccccc1C2` showed a melting point of 152 to 154 °C.
`CCCc1nn(C)c2c(=O)n(CCOc3cccc(OC(C)(CC)C(=O)O)c3)c(C)nc12` (stereo unspecified) showed a melting point of 130 to 132 °C.
Work on `COC(=O)C=C1C(=O)NC(=O)N1C` yielded a melting point of 100 °C.
In the case of `C#CCN(Cc1cc2c(=O)n(C)c(CN3CCN(CC)CC3)nc2cc1Cl)c1ccc(C(=O)OC(C)(C)C)cc1`, the melting point is reported as 145 to 146 °C.
In the case of `FC(F)Oc1cc(Oc2ccnc(-c3cnccn3)n2)ccn1`, the melting point is reported as 128 to 129 °C.
With `Oc1cc(Br)c2oc(-c3ccc(O)c(F)c3)nc2c1` the melting point was 265 to 267 °C.
Molecule `COc1ccc(N(C(C)=O)S(=O)(=O)c2ccc(C)cc2)c([N+](=O)[O-])c1` has a melting point of 172 to 174 °C.
With `CCC(=O)N[C@@H](C)C(=O)N1CCC[C@H]1C(=O)O` the melting point was 169 to 171 °C.
`O=C1CSCN1CCCCN1CCN(c2ccc3ccccc3n2)CC1` gave a melting point of 105 to 107 °C.
Work on `O=C(O)CNC(=O)[C@@H](CO)NC(=O)CNC(=O)CSC(=O)c1ccccc1` yielded a melting point of 149 °C.
`Cc1cccc(Nc2cc(Nc3ccc(OCCN(C)C)cc3)ncn2)c1` gave a melting point of 219 to 222 °C.
For `Nc1nc(F)c(C(F)(F)F)cc1Cl`, the melting point was 101 to 103 °C.
`Clc1ccc(N2CC(c3ccccc3)=C(c3ccccc3)C2)cc1` showed a melting point of 158 °C.
For `NS(=O)(=O)c1cc(C(=O)O)cc(SCC(Br)CBr)c1Cc1ccccc1` (stereo unspecified), the melting point was 205 to 207 °C.
`COCc1nnc(NCCCN2CC3CCC(CC3)C2)c2cc3ccccn3c12` gave a melting point of 229 to 232 °C.
In the case of `CC(=O)O[C@@H]1OCC[C@@H]1NC(=O)[C@H](CC(C)C)NC(=O)[C@H](CC(C)C)NC(=O)OCc1ccccc1`, the melting point is reported as 175 to 176 °C.
`COc1cccc(C2(C(C)(C)O)CCN(C)CC2)c1OC` showed a melting point of 97 °C.
In the case of `Cn1ncnc1COc1nc2c(cc1CC(C)(C)C)nnn2-c1ccccc1F`, the melting point is reported as 130 to 133 °C.
Work on `O=C(NCc1ccc(Cl)cc1)c1n[nH]c2ccccc2c1=O` yielded a melting point of 269 to 271 °C.
In the case of `CN(C)C(=O)N1C[C@@H](O)[C@H](Oc2ccc(Cl)cc2)C1` (relative stereo), the melting point is reported as 137 to 142 °C.
`CCOC(=O)c1sc(SC(C)C)c2c1CCC(NC(C)=O)C2=O` (stereo unspecified) gave a melting point of 170 to 171 °C.
Molecule `C[C@H](NC(=O)OC(C)(C)C)C(=O)NC1CCC(Nc2cccc3c2C(=O)c2ccccc2C3=O)CC1` (stereo partly specified) has a melting point of 151 °C.
`COc1nc2cc(Cl)c(Cl)c(N(CC(=O)O)S(C)(=O)=O)c2nc1OC` gave a melting point of 203 to 206 °C.
`Nc1cc(C(=O)O)cc(SCc2ccccn2)c1-c1ccccc1` showed a melting point of 210 to 211 °C.
For `Cc1nc2ccccn2c(=O)c1CCN1CCC(c2coc3cc(F)ccc23)CC1`, the melting point was 160 °C.
Molecule `O=C1OC(=O)c2c(Br)c(Sc3ccccc3)c(Sc3ccccc3)c(Br)c21` has a melting point of 183 to 184 °C.
In the case of `O=C1NCCN(Cc2ccc(OCc3ccccc3)cc2)C1c1ccccc1` (stereo unspecified), the melting point is reported as 207 to 211 °C.
In the case of `CCOC(=O)C(Cc1ccc(CN(CC)CC)cc1)NC(=O)OC(C)(C)C` (stereo unspecified), the melting point is reported as 56 °C.
`COc1ccc(CN2C(=O)C3(COc4cc(OC(F)(F)F)ccc43)c3ccccc32)cc1` (stereo unspecified) gave a melting point of 82 to 84 °C.
`O=C(Nc1cccc2c1C(=O)OC2=O)c1ccc(Cl)s1` gave a melting point of 195 °C.
With `O=C(Nc1cccnc1NCc1ccc(Cl)cc1)c1ccccn1` the melting point was 123 to 125 °C.
Molecule `O=C1OC(OC(=O)c2cccnc2Cl)c2ccccc21` (stereo unspecified) has a melting point of 137 to 138 °C.
Molecule `CC(C)[C@H](NC(=O)N(C)Cc1cscn1)C(=O)N[C@@H](Cc1ccccc1)[C@@H](O)C[C@H](Cc1ccccc1)NC(=O)OCc1cccnc1` has a melting point of 71 to 74 °C.
Molecule `CC(C)(O)[C@@H](N)c1cccc2ccccc12` has a melting point of 86 to 87 °C.
For `CCCN(Cc1ccccc1C(=O)O)c1ccc(CC(=O)O)cc1`, the melting point was 163 °C.
In the case of `Nc1ccc(OCC(=O)OCCO)cc1`, the melting point is reported as 104 to 106 °C.
`OC(c1cc(-c2ccc(Cl)cc2)c(-c2ccc(Cl)cc2)[nH]1)(C(F)(F)F)C(F)(F)F` showed a melting point of 144 to 145 °C.
`CN1Cc2cc(Cl)ccc2C(=O)c2cc(CC(=O)O)ccc21` gave a melting point of 191 to 194 °C.
Molecule `Cc1oc(-c2ccc(C(F)(F)F)cc2)nc1COc1cc(F)cc(CN(O)C(N)=O)c1` has a melting point of 156 to 157 °C.
Work on `COc1ccc(CC(NC(C)=O)C(=O)O)cc1` (racemic) yielded a melting point of 144 to 146 °C.
In the case of `Cc1cnc2sc(S(=O)(=O)c3ccccc3)nn2c1=O`, the melting point is reported as 198 to 200 °C.
Molecule `O=C(O)C(O)Cc1ccccc1[N+](=O)[O-]` (stereo unspecified) has a melting point of 95 to 98 °C.
